The text below walks through data of ChEMBL document CHEMBL1134254, “Syntheses of certain 3-aryl-2-propenoates and evaluation of their cytotoxicity” (Bioorg Med Chem Lett, 2001).

The subject of one assay is HCT-116. The assay is described as follows: cells. Particulars: Homo sapiens.
The next assay relates to A-431. Briefly: cells. Particulars: Homo sapiens.
In the next assay the test system is B16. Briefly: Inhibitory concentration against B16 murine melanoma cell line. Particulars: Mus musculus.
A further assay deals with MDA-MB-231. Briefly: cells. Particulars: Homo sapiens.
A further assay relates to MCF7. Briefly: Inhibitory concentration required against MCF-7 breast cancer cell line. The assay is classed as functional, cell-based. Particulars: Homo sapiens.
The next assay relates to LOX IMVI. Briefly: Inhibitory concentration required against LOX-IMVI melanoma cell line. The conditions noted are these: Homo sapiens.
In another assay the test system is HCT-15. Briefly: Inhibitory concentration required against HCT 15 colon cancer cell line. Particulars: Homo sapiens.
The next assay has as its system HT-29. The assay is described as follows: Inhibitory concentration required against HT 29 colon cancer cell line. The conditions noted are these: Homo sapiens.
A further assay has as its system NCI-H23. Briefly: Inhibitory concentration required against NCI-H23 lung cancer cell line. Particulars: Homo sapiens.
The next assay relates to PC-3. The assay is described as follows: Inhibitory concentration required against PC-3 prostate cancer cell line. The conditions noted are these: Homo sapiens.
A further assay concerns A549. The assay is described as follows: cells. The conditions noted are these: Homo sapiens.
A further assay concerns DLD-1. The assay is described as follows: Inhibitory concentration required against DLD-1 colon cancer cell line. The conditions noted are these: Homo sapiens.
In another assay the test system is ACHN. Briefly: Inhibitory concentration required against ACHN renal cancer cell line. Particulars: Homo sapiens.
Another assay deals with SNB-19. The assay is described as follows: Inhibitory concentration required against SNB19 CNS cancer cell line. Particulars: Homo sapiens. Format: functional, cell-based.
The subject of a further assay is COLO 205. The assay is described as follows: cells. The conditions noted are these: Homo sapiens.
A further assay deals with HCC 2998. The assay is described as follows: Inhibitory concentration required against HCC2998 colon cancer cell line. Particulars: Homo sapiens.
The subject of another assay is SW-620. Briefly: Inhibitory concentration required against SW620 colon cancer cell line. Particulars: Homo sapiens.
For a further assay, the system named is UACC-62. The assay is described as follows: Inhibitory concentration required against UACC62 melanoma cell line. Particulars: Homo sapiens.

Converted amounts (≈) assume the structure as drawn. Where only a bound is given, the exact number is not on record here.

Description for A-431: Inhibitory concentration required against A 431 human epidermoid carcinoma cell line
Description for A549: Inhibitory concentration required against A 549 lung cancer cell line
Description for COLO 205: Inhibitory concentration required against COLO 205 colon cancer cell line
Description for HCT-116: Inhibitory concentration against HCT 116 human colon cancer cell line
Description for MDA-MB-231: Inhibitory concentration required against MDA-MB-231 breast cancer cell line

The term IC50 denotes the concentration at which inhibition is half-maximal. Lower therefore signals inhibition by little substance. In the case of `COC(=O)/C=C/c1ccc(OC)c(O)c1`, the IC50 in the assay on HCT-116 is 27.5 µg/mL (≈ 132 µM); in the assay with A-431 it was above 30 µg/mL; with B16, 25.9 µg/mL (≈ 124 µM).

Take `COC(=O)/C=C/c1cc(O)c2c(c1O)C(=O)c1ccccc1C2=O`: the IC50 is 0.74 µg/mL (≈ 2.28 µM) with MDA-MB-231; 0.46 µg/mL (≈ 1.42 µM) in the assay on MCF7; 0.09 µg/mL (≈ 0.278 µM) in the assay with LOX IMVI; 0.66 µg/mL (≈ 2.04 µM) in the assay on HCT-15; 0.55 µg/mL (≈ 1.7 µM) with HT-29; 0.39 µg/mL (≈ 1.2 µM) in the assay on NCI-H23. Further, the IC50 in the assay on PC-3 worked out at 2.72 µg/mL (≈ 8.39 µM); with A549, 1.13 µg/mL (≈ 3.48 µM); in the assay on DLD-1, 0.89 µg/mL (≈ 2.74 µM); with HCT-116 it was 0.65 µg/mL (≈ 2 µM); with ACHN, 0.42 µg/mL (≈ 1.3 µM); with A-431, 0.87 µg/mL (≈ 2.68 µM). Also, the IC50 in the assay with SNB-19 worked out at 0.69 µg/mL (≈ 2.13 µM); with COLO 205, 0.73 µg/mL (≈ 2.25 µM); in the assay on HCC 2998 it was 0.95 µg/mL (≈ 2.93 µM); in the assay with SW-620, 0.45 µg/mL (≈ 1.39 µM); in the assay with B16, 0.18 µg/mL (≈ 0.555 µM); in the assay on UACC-62, 0.11 µg/mL (≈ 0.339 µM).

As for `COC(=O)/C=C/c1ccc2c(c1)OCO2`, the IC50 in the assay with HCT-116, in the assay with A-431 and in the assay on B16 was above 30 µg/mL throughout.

For `COC(=O)CCc1cc(O)ccc1O`, the IC50 with HCT-116 is 4.59 µg/mL (≈ 23.4 µM); with A-431, 5 µg/mL (≈ 25.5 µM); in the assay on B16, 4.43 µg/mL (≈ 22.6 µM).

Take `COC(=O)/C=C/c1cc(O)ccc1O`: the IC50 in the assay with MDA-MB-231 is 0.82 µg/mL (≈ 4.22 µM); in the assay on MCF7, 0.37 µg/mL (≈ 1.91 µM); with LOX IMVI, 0.28 µg/mL (≈ 1.44 µM); in the assay with HCT-15, 0.27 µg/mL (≈ 1.39 µM); in the assay on HT-29, 1.1 µg/mL (≈ 5.66 µM); in the assay with NCI-H23 it was 0.93 µg/mL (≈ 4.79 µM). Further, the IC50 in the assay with PC-3 is 0.42 µg/mL (≈ 2.16 µM); in the assay with A549, 7.81 µg/mL (≈ 40.2 µM); in the assay with DLD-1, 0.68 µg/mL (≈ 3.5 µM); with HCT-116, 0.17 µg/mL (≈ 0.875 µM); in the assay on ACHN it was 0.73 µg/mL (≈ 3.76 µM); in the assay on A-431, 0.15 µg/mL (≈ 0.772 µM). Besides, the IC50 was 2.59 µg/mL (≈ 13.3 µM) in the assay on SNB-19; 0.97 µg/mL (≈ 5 µM) with COLO 205; 5.22 µg/mL (≈ 26.9 µM) in the assay with HCC 2998; 0.39 µg/mL (≈ 2.01 µM) in the assay on SW-620; 0.12 µg/mL (≈ 0.618 µM) in the assay on B16; 0.56 µg/mL (≈ 2.88 µM) with UACC-62.

For `CCCOC(=O)/C=C/c1ccc(O)c(O)c1`, the IC50 worked out at 2.12 µg/mL (≈ 9.54 µM) in the assay on HCT-116, 1.89 µg/mL (≈ 8.5 µM) in the assay on A-431 and 2.46 µg/mL (≈ 11.1 µM) with B16.

Consider `CCOC(=O)/C=C/c1cc(OC)c2c(c1OC)C(=O)c1ccccc1C2=O`, for which the IC50 with HCT-116, with A-431 and with B16 was above 30 µg/mL each time.

As to `CCOC(=O)/C=C/c1cc(O)c2c(c1O)C(=O)c1ccccc1C2=O`, the IC50 in the assay with HCT-116 was found to be 0.71 µg/mL (≈ 2.1 µM); in the assay with A-431, 0.91 µg/mL (≈ 2.69 µM); with B16, 0.32 µg/mL (≈ 0.946 µM).

For `COC(=O)/C=C/c1ccc(OC)c(OC)c1`, the IC50 with HCT-116, in the assay with A-431 and in the assay with B16 was above 30 µg/mL throughout.

With `O=C(/C=C/c1ccc(O)c(O)c1)Nc1ccccc1`, the values for the IC50 in the assay on HCT-116, in the assay with A-431 and in the assay with B16 were 4.26 µg/mL (≈ 16.7 µM), 5 µg/mL (≈ 19.6 µM) and 4.23 µg/mL (≈ 16.6 µM), respectively.

With `COC(=O)/C=C\c1cc(O)ccc1O`, the IC50 in the assay with HCT-116 was above 30 µg/mL; with A-431 it was above 30 µg/mL; in the assay on B16, 30.1 µg/mL (≈ 155 µM).

In the case of `COC(=O)/C=C/c1cc(OC)c2c(c1OC)C(=O)c1ccccc1C2=O`, the IC50 in the assay on HCT-116, in the assay on A-431 and with B16 was above 30 µg/mL each time.

For the molecule `COC(=O)/C=C/c1cc(OC)ccc1OC`, the IC50 in the assay on HCT-116, with A-431 and in the assay with B16 was above 30 µg/mL throughout.

In the case of `O=C/C=C/c1ccc(O)c(O)c1` [CAFFEOYL ALDEHYDE], the half-inhibitory concentration (IC50) in the assay with HCT-116, in the assay on A-431 and in the assay with B16 was above 30 µg/mL throughout.

As to `COc1cccc2c1C(=O)c1c(O)c3c(c(O)c1C2=O)C[C@@](O)(C(=O)CO)C[C@@H]3O[C@H]1C[C@H](N)[C@H](O)[C@H](C)O1` [DOXORUBICIN], the IC50 with SNB-19 turned out to be 0.29 µg/mL (≈ 0.534 µM).

Take `CCOC(=O)/C=C/c1ccc(O)c(O)c1` [ETHYL CAFFEATE]: the IC50 in the assay on HCT-116 is 1.99 µg/mL (≈ 9.56 µM); in the assay with A-431 it was 1.81 µg/mL (≈ 8.69 µM); in the assay with B16, 1.75 µg/mL (≈ 8.4 µM).

On to `COC(=O)/C=C/c1ccc(O)c(O)c1` [METHYLCAFFEATE], for which the IC50 in the assay with HCT-116 came to 3.01 µg/mL (≈ 15.5 µM); with A-431, 1.79 µg/mL (≈ 9.22 µM); in the assay with B16 it was 2.96 µg/mL (≈ 15.2 µM).

`O=C1c2ccccc2C(=O)c2c(O)ccc(O)c21` [QUINIZARIN]: the IC50 with HCT-116, in the assay with A-431 and with B16 was above 30 µg/mL in each case.
